US11331299B2, “Medicinal use of serrulatane diterpenes” (The University of Sydney, priority 2016, dated 2022)
Read-outs that look alike come from different tables or passages of the source.

Legend:
CCD 841 CoN = test: OncoPanel normal cell proliferation assay (3-day); format: cell-based; details: Homo sapiens, 72 h, colon epithelial, 3-day incubation
[1] = system: 4 normal cell types, CCD 841 CoN, HMEC, HREC and Wi38; test: OncoPanel normal cell proliferation assay (3-day), panel; format: cell-based; details: all 4 cell lines
melatonin MT1 (ML1A) (h) = melatonin MT1 (ML1A) (h) (Homo sapiens, UniProt P48039); test: Bioprint radioligand binding assay
melatonin MT1 (ML1A) (h), sequence (P48039 whole entry): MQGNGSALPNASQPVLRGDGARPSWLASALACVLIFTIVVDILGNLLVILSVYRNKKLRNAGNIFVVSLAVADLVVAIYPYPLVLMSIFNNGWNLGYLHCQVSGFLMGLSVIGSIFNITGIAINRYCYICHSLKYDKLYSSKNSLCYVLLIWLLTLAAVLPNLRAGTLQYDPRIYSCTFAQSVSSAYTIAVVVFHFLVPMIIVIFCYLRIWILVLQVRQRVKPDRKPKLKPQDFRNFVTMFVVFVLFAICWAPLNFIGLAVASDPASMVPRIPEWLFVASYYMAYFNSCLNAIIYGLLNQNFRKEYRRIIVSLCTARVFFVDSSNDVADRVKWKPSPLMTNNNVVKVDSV

[2] = system: IL-8 release from IL-17A and TNFα-induced primary human keratinocytes; test: Keratinocyte IL-8 release (assay number 1250); format: cell-based
[3] = target: receptors (Bioprint panel) (Homo sapiens, UniProt P08173); test: biochemical; format: binding; details: […] M4 (h) (antagonist radioligand); 10 μM; read-out: % Inhibition of Control Specific Binding
receptors (Bioprint panel) (Homo sapiens, UniProt P08173), sequence (P08173 whole entry): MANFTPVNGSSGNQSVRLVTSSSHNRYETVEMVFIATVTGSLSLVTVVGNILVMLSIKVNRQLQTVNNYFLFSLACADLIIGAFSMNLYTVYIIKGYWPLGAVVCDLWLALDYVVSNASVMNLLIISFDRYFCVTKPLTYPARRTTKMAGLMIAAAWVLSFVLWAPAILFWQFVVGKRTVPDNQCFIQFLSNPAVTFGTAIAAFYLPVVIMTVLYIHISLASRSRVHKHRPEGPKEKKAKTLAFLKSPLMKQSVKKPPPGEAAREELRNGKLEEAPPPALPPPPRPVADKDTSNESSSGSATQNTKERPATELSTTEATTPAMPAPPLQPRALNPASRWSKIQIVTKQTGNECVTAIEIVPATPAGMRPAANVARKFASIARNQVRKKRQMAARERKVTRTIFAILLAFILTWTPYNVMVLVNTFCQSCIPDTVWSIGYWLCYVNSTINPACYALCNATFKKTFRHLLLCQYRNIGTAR

[4] = target: receptors (Bioprint panel) (Homo sapiens, UniProt P32245); test: biochemical; format: binding; details: MELANOCORTIN MC4 (h) (agonist radioligand); 10 μM; read-out: % Inhibition of Control Specific Binding
receptors (Bioprint panel) (Homo sapiens, UniProt P32245), sequence (P32245 whole entry): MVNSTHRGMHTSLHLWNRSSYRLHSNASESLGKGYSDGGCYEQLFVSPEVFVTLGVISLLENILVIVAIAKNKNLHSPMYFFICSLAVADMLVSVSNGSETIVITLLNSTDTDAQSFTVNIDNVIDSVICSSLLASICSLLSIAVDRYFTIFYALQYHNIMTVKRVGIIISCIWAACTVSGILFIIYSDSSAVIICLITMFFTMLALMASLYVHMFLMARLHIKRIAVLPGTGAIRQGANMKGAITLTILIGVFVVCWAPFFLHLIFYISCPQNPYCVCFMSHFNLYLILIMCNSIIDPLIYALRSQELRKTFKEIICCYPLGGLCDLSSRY

[5] = target: receptors (Bioprint panel) (Homo sapiens, UniProt P30518); test: biochemical; format: binding; details: VASOPRESSIN V2 (h) (agonist radioligand); 10 μM; read-out: % Inhibition of Control Specific Binding
receptors (Bioprint panel) (Homo sapiens, UniProt P30518), sequence (P30518 whole entry): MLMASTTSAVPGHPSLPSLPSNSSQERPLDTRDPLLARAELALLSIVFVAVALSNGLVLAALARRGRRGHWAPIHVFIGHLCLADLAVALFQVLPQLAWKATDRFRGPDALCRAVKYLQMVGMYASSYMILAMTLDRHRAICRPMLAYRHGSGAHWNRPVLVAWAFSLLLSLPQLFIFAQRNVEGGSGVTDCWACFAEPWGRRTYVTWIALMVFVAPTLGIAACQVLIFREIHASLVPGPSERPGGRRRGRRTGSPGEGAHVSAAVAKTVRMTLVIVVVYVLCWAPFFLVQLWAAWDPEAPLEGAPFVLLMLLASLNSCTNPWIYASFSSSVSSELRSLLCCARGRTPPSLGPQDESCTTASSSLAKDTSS

[6] = system: receptors (Bioprint panel); test: biochemical; format: binding; details: 10 μM
[7] = target: receptors (Bioprint panel) (Homo sapiens, UniProt P43088); test: biochemical; format: binding; details: […] (h) (agonist radioligand); 10 μM; read-out: % Inhibition of Control Specific Binding
receptors (Bioprint panel) (Homo sapiens, UniProt P43088), sequence (P43088 whole entry): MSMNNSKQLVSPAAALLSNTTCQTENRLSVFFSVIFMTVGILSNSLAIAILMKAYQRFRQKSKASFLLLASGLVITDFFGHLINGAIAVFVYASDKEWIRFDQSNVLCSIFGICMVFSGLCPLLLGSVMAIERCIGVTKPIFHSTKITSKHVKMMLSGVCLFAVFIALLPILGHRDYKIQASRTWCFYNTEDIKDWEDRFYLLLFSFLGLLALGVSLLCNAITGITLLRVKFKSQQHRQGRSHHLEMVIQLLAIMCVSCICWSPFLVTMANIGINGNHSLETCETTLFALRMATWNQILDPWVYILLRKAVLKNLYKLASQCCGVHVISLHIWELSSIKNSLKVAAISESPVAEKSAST

[8] = target: receptors (Bioprint panel) (Homo sapiens, UniProt P47871); test: biochemical; format: binding; details: glucagon (h) (agonist radioligand); 10 μM; read-out: % Inhibition of Control Specific Binding
receptors (Bioprint panel) (Homo sapiens, UniProt P47871), sequence (P47871 whole entry): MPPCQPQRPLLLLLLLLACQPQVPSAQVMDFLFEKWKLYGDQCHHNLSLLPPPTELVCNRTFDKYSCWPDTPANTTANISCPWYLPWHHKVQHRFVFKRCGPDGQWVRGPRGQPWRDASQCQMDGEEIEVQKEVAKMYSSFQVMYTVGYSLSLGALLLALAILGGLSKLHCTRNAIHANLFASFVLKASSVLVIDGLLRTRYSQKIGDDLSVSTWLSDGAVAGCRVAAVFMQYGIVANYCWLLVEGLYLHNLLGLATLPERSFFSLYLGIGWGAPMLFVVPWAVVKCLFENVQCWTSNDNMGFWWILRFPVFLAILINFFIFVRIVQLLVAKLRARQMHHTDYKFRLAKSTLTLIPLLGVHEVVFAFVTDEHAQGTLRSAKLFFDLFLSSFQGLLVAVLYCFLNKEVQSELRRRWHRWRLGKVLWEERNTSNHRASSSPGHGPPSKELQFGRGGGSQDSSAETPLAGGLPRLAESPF

[9] = target: receptors (Bioprint panel) (Homo sapiens, UniProt P41968); test: biochemical; format: binding; details: MELANOCORTIN MC3 (h) (agonist radioligand); 10 μM; read-out: % Inhibition of Control Specific Binding
receptors (Bioprint panel) (Homo sapiens, UniProt P41968), sequence (P41968 whole entry): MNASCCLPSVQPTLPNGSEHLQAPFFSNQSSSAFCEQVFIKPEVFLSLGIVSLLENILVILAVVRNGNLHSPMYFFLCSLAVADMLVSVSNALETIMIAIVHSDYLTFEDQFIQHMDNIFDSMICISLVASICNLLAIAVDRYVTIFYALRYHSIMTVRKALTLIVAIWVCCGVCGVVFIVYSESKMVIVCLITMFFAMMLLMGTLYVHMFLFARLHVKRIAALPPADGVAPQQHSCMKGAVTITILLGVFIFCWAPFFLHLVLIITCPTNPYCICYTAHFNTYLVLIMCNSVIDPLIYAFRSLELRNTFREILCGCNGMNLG

[10] = system: Toll-like receptor 4 (TLR4) activation on human peripheral blood mononuclear cells (PBMC's); test: TLR4 inhibition assay, LPS-induced cytokine release; format: cell-based; details: for IC50: Homo sapiens, PBMC, 24 h, 24-hour LPS stimulation
histamine H1 (h) = histamine H1 (h) (Homo sapiens, UniProt P35367); test: Bioprint radioligand binding assay
histamine H1 (h), sequence (P35367 whole entry): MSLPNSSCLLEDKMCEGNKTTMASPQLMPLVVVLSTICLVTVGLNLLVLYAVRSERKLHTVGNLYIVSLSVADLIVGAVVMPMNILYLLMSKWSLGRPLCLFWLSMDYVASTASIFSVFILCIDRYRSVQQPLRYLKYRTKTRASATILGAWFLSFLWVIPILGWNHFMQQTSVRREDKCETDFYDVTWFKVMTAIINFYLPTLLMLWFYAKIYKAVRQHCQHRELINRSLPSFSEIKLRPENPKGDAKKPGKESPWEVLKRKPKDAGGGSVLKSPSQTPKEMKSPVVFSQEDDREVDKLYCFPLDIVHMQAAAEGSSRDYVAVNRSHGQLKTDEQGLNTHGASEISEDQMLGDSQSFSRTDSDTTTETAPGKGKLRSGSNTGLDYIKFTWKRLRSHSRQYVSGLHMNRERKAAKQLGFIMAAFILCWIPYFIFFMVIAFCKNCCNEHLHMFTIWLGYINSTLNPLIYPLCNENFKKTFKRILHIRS

MLL2(h) complex = details: read-out: Reference: (IC50 not given); cited from earlier work
MLL3(h) complex = MLL3(h) complex (Homo sapiens, UniProt Q8NEZ4); details: read-out: Reference: (IC50 not given); cited from earlier work
PRDM9 (h) = PRDM9 (h) (Homo sapiens, UniProt Q9NQV7); details: read-out: Reference: (IC50 not given); cited from earlier work
PRDM9 (h), sequence (Q9NQV7 whole entry): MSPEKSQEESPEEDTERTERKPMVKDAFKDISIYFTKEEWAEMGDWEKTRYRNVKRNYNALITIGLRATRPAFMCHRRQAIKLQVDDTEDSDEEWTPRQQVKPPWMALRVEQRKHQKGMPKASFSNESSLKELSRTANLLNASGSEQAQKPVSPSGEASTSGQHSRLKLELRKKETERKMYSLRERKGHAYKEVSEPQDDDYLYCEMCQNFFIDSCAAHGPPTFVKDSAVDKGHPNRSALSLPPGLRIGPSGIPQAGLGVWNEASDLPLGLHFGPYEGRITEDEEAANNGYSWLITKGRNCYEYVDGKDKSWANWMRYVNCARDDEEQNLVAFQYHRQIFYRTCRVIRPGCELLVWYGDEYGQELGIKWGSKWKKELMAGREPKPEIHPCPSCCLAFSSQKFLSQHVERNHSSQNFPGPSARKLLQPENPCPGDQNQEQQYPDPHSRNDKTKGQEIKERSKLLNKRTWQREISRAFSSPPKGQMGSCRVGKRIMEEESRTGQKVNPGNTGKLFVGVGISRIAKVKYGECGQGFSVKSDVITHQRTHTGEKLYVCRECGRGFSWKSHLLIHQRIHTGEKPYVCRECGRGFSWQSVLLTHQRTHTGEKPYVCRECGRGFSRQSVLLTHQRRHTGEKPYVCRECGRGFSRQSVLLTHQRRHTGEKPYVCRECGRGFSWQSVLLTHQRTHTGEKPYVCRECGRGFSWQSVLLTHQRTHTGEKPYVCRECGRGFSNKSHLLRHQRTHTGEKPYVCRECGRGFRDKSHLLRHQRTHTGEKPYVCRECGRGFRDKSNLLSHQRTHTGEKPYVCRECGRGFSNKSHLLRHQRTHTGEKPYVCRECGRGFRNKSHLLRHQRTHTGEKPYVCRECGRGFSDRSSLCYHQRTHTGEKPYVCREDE

SETDB1 (h) = SETDB1 (h) (Homo sapiens, UniProt Q15047); details: read-out: Reference: (IC50 not given); cited from earlier work
DNMT3B/DNMT3L (h) = DNMT3B/DNMT3L (h) (Homo sapiens, UniProt Q9UBC3); details: read-out: Reference IC50; cited from earlier work
SUV39H2 (h) = SUV39H2 (h) (Homo sapiens, UniProt Q9H5I1); details: read-out: Reference: (IC50 not given); cited from earlier work
SUV39H2 (h), sequence (Q9H5I1 whole entry): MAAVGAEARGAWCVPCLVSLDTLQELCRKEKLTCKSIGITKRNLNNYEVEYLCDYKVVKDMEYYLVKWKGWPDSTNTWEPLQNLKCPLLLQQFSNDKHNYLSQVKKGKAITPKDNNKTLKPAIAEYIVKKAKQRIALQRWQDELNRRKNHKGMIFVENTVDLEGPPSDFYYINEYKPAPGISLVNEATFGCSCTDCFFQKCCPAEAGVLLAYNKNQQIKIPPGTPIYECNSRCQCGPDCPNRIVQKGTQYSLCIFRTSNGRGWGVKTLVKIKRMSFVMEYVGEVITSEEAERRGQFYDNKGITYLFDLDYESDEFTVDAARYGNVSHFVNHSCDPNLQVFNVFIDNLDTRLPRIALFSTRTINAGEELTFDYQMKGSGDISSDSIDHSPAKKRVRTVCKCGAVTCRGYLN

SETD7 (h) = target: T1, SETD7 (h) (Homo sapiens, UniProt Q8WTS6); details: read-out: Reference: (IC50 not given); cited from earlier work
T1 sequence (Q8WTS6 1-366): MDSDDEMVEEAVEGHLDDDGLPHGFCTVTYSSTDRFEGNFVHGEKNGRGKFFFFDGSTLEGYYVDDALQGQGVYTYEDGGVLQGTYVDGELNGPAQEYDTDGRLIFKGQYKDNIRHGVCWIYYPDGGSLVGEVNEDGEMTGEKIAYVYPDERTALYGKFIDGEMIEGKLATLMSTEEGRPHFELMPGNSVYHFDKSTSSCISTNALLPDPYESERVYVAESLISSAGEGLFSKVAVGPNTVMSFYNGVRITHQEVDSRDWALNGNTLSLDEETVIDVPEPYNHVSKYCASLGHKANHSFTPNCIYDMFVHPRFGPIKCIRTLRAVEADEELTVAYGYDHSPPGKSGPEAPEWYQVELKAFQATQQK

ASH1L = ASH1L (Homo sapiens, UniProt Q9NR48); details: read-out: Reference: IC50; cited from earlier work

Question: Which results are given for `CC(C)=CCC[C@H](CO)[C@@H]1CC[C@@H](C)c2c1cc(C)c(O)c2O` [Compound 1, 7,8,18-trihydroxyserrulat-14-ene]?
Answer: EC50 (CCD 841 CoN; read-out: Cell Count EC50): 4.86 µM; GI50 (CCD 841 CoN; read-out: Cell Count GI50): 5.27 µM; IC50 (CCD 841 CoN; read-out: Cell Count IC50): 14.3 µM; toxicity towards normal cells [1]: relatively low toxicity; inhibition at 10 µM (melatonin MT1 (ML1A) (h); 10 μM, read-out: % inhibition of control specific binding): 91%; inhibition at 10 µM (melatonin MT1 (ML1A) (h); read-out: % Inhibition of Control Specific Binding): 91%; Emax ([2]; read-out: Inhibition of IL-8 release, Max Effect): 110%; EC50 ([2]; read-out: Inhibition of IL-8 release, Rel EC50): 0.157 µM; inhibition at 10 µM [3]: 19%; inhibition at 10 µM [4]: 37%; inhibition at 10 µM [5]: 11%; % Inhibition of Control Specific Binding [6]: 11%; % Inhibition of Control Specific Binding ([6]; CYTOKINES TNF-alpha (h) (agonist radioligand)): −23%; % Inhibition of Control Specific Binding ([6]; Ca2+ channel (L, dihydropyridine site) (antagonist radioligand)): 55%; % Inhibition of Control Specific Binding ([6]; Ca2+ channel (L, diltiazem site) (benzothiazepines) (antagonist radioligand)): −30%; % Inhibition of Control Specific Binding ([6]; Ca2+ channel (L, verapamil site) (phenylalkylamine) (antagonist radioligand)): −4%; % Inhibition of Control Specific Binding ([6]; Cl- channel (GABA-gated) (antagonist radioligand)): 42%; % Inhibition of Control Specific Binding ([6]; GABA CHANNELS BZD (central) (agonist radioligand)): −31%; % Inhibition of Control Specific Binding ([6]; GABA transporter (antagonist radioligand)): −10%; % Inhibition of Control Specific Binding ([6]; GLUTAMATE CHANNELS AMPA (agonist radioligand)): 4%; % Inhibition of Control Specific Binding ([6]; GLUTAMATE CHANNELS NMDA (antagonist radioligand)): 9%; % Inhibition of Control Specific Binding ([6]; GLUTAMATE CHANNELS PCP (antagonist radioligand)): −11%; % Inhibition of Control Specific Binding ([6]; GLUTAMATE CHANNELS kainate (agonist radioligand)): 15%; % Inhibition of Control Specific Binding ([6]; Na+ channel (site 2) (antagonist radioligand)): 48%; % Inhibition of Control Specific Binding ([6]; SKCa channel (antagonist radioligand)): 14%; % Inhibition of Control Specific Binding ([6]; Thyroid Hormone): 9%; inhibition at 10 µM [7]: 54%; inhibition at 10 µM [8]: -20%; inhibition at 10 µM [9]: 60%; IC50 ([10]; read-out: IC50, LPS-induced IL-1β release): 6.6 µM; IC50 ([10]; read-out: IC50, LPS-induced IL-6 release): 8.8 µM; IC50 ([10]; read-out: IC50, LPS-induced IL-10 release): 4.3 µM; IC50 ([10]; read-out: IC50, LPS-induced TNFα release): 8.9 µM; IC50 ([10]; I-1β, human PBMC, read-out: LPS-induced cytokine IC50): 6.6 µM; IC50 ([10]; IL-6, human PBMC, read-out: LPS-induced cytokine IC50): 8.8 µM; IC50 ([10]; IL-10, human PBMC, read-out: LPS-induced cytokine IC50): 4.3 µM; IC50 ([10]; TNF-α, human PBMC, read-out: LPS-induced cytokine IC50): 8.9 µM; inhibition of the secretion of all cytokines ([10]; top test concentration): moderate to strong inhibition; inhibition at 10 µM (histamine H1 (h); HISTAMINE H1 (h) (antagonist radioligand), read-out: % Inhibition of Control Specific Binding): 64%; inhibition at 10 µM (histamine H1 (h); read-out: % inhibition of control specific binding): 64%

Question: For `Nc1ncnc2c1ncn2[C@@H]1O[C@H](CSCC[C@H](N)C(=O)O)[C@@H](O)[C@H]1O` [SAH], which IC50 (MLL2(h) complex) is on record?
Answer: Its IC50 is 0.97 µM.

Question: What about the IC50 (MLL3(h) complex) of the same compound?
Answer: The IC50 was 0.97 µM.

Question: And the IC50 (PRDM9 (h))?
Answer: Its IC50 is 370 µM.

Question: What about the IC50 (SETDB1 (h)) of the same compound?
Answer: The IC50 was 1.8 µM.

Question: What about the IC50 (DNMT3B/DNMT3L (h)) of the same compound?
Answer: The IC50 was 0.045 µM.

Question: What about the IC50 (SUV39H2 (h)) of the same compound?
Answer: Its IC50 is 24 µM.

Question: And the IC50 (SETD7 (h))?
Answer: The IC50 was 24 µM.

Question: What about the IC50 (ASH1L) of the same compound?
Answer: Its IC50 is 9.1 µM.
